From patent publication US9394284B2, “Compounds act at multiple prostaglandin receptors giving a general anti-inflammatory response” (Allergan, Inc., priority 2010, dated 2016) come the findings set out here.

Assay type in all cases: cell-based
Experiment [1] has as its target T1, human prostanoid DP1 receptor (Homo sapiens, UniProt Q13258).
T1 construct: expressed in transfected cells
T1 sequence (Q13258 1-359): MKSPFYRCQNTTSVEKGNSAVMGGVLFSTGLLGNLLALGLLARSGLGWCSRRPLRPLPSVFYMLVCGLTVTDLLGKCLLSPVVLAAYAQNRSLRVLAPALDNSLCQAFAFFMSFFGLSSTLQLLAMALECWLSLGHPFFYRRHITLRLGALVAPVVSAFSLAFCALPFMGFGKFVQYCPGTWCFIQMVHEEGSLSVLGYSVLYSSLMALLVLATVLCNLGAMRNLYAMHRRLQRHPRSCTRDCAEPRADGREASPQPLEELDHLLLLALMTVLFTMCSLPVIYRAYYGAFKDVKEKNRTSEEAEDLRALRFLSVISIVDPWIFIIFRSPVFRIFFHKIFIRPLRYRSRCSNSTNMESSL
The experiment is described as follows: FLIPR Ca2+ signaling antagonist assay, DP1 receptor stable cell line. Particulars: HEK-293 EBNA stable cell line; standard agonist BW 245C; NA = inactive (no antagonism or Kb 10,000 nM); PAg, Ag not defined. In a few lines: (§1)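 Functional antagonism measured by Ca2+ flux at 37 °C. Agonist ranges were 10^−11 to 10^−5 M, or 10^−12 to 10^−6 M for TP with U-46619; PGE2 for EP1/EP3, BW 245C for DP1. Compound spanned 0.1–30 μM except TP, 0.067–1 μM.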

The target of experiment [2] is T2, human prostanoid EP1 receptor (Homo sapiens, UniProt P34995).
T2 construct: expressed in transfected cells
T2 sequence (P34995 1-402): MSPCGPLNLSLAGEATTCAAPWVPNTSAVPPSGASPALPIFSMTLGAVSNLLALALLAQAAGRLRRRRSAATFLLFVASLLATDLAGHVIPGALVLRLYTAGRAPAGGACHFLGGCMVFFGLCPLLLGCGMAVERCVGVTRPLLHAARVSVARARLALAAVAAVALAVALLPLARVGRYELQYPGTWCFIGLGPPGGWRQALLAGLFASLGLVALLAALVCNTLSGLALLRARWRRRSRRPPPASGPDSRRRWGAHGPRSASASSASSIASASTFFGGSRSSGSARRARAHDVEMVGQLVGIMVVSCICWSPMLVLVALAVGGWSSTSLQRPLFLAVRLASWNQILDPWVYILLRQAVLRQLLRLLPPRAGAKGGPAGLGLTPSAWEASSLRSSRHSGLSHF
The experiment is described as follows: FLIPR Ca2+ signaling antagonist assay, EP1 receptor stable cell line. Particulars: HEK-293 EBNA stable cell line; standard agonist PGE2; NA = inactive (no antagonism or Kb 10,000 nM); PAg, Ag not defined. The method, boiled down:
as §1

The target in experiment [3] is T3, human prostanoid EP2 receptor (Homo sapiens, UniProt P43116).
T3 construct: expressed in transfected cells
The experiment can be described thus: FLIPR Ca2+ signaling antagonist assay, EP2 receptor stable cell line. Particulars: HEK-293 EBNA stable cell line; standard agonist PGE2; NA = inactive (no antagonism or Kb 10,000 nM); PAg, Ag not defined. As for the experimental part:
The above compounds were tested for PG antagonist activity as follows using human recombinant prostanoid receptor (DP1, EP1-4, FP, IP and TP) stable cell lines:
In order to measure the response of Gs and Gi coupled prostanoid receptors as a Ca^2+ signal, chimeric G protein cDNAs were used. Stable cell lines over-expressing human prostanoid DP1, EP1-4, FP, IP, and TP receptors were established as follows:
Briefly, human prostanoid DP1, EP2, and EP4 receptor cDNAs were co-transfected with chimeric Gqs cDNA containing a haemagglutanin (HA) epitope; human prostanoid EP3 receptors were co-transfected with chimeric Gqi-HA; human EP1, FP, IP, and TP receptor cDNAs were expressed with no exogenous G-proteins. Gqs and Gqi chimeric cDNAs (Molecular Devices, Sunnyvale, Calif., U.S.A.), as well as cDNAs of prostanoid receptors, were cloned into a pCEP4 vector with a hygromycin B selection marker. Transfection into HEK-293 EBNA (Epstein-Barr virus nuclear antigen) cells was achieved by the FuGENE 6 transfection Reagent (Roche Applied Science, Indianapolis, Ind., USA). Stable transfectants were selected according to hygromycin resistance. Because Gqs and Gqi contained an HA epitope, G-protein expression was detected by Western blotting analysis using anti-mouse HA monoclonal antibody and horseradish peroxidase (HRP)-conjugated secondary antibody, while functional expression of prostanoid receptors was detected by FLIPR screening (Matias et al., 2004). These stable cell lines were validated using previously published antagonists at 10 μM against serial dilutions of standard agonists by FLIPR functional assays for Ca^2+ Signaling (as described below).
Ca^2+ signaling studies were performed using a FLIPR TETRA system (Molecular Devices, Sunnyvale, Calif., USA) in the 384-format. This is a high-throughput instrument for cell-based assays to monitor Ca^2+ signaling associated with GPCRs and ion channels. Cells were seeded at a density of 5×10^4 cells/well in BioCoat poly-D-lysine coated, black wall, clear bottom 384-well plates (BD Biosciences, Franklin lakes, NJ, USA) and allowed to attach overnight in an incubator at 37° C. The cells were then washed twice with HBSS-HEPES buffer (Hanks' balanced salt solution without bicarbonate and phenol red, 20 mM HEPES, pH 7.4) using an ELx405 Select CW Microplate Washer (BioTek, Winooski, Vt., USA). After 60 min of dye-loading in the dark using the Ca^2+-sensitive dye Fluo-4AM (Invitrogen, Carlsbad, Calif., USA), at a final concentration of 2×10^−6M, the plates were washed 4 times with HBSS-HEPES buffer to remove excess dye and leaving 50 μl of buffer in each well. The plates were then placed in the FLIPR TETRA instrument and allowed to equilibrate at 37° C. AGN-211377 was added in a 25 μl volume to each well to give final concentrations of 0.1 μM, 0.3 μM, 1 μM, 3 μM, 10 μM, and 30 μM; or 0.067 μM, 0.1 μM, 0.2 μM, 0.3 μM, 0.67 μM, and 1 μM for cells over-expressing TP receptors. After 4.5 minutes, a 7-point serial dilution of the standard agonist for the corresponding receptor, in a 25 μl volume was injected at the final concentrations from 10^−11M to 10^−5M in 10-fold serial dilution increments for cells expressing human recombinant DP1, EP1, EP2, EP3, EP4, FP, and IP receptors. The dose range for the standard agonist for human recombinant TP receptors was from 10^−12 M to 10^−6 M. HBSS-HEPES buffer was used as the negative control for the standard agonists. Cells were excited with LED (light emitting diode) excitation at 470-495 nm and emission was measured through an emission filter at 515-575 nm. Assay plates were read for 3.5 minutes using the FLIPR^TETRA. The peak increase in fluorescence intensity was recorded for each well. On each plate, negative controls, dose response of positive controls, and co-treatments of antagonist-agonist for each dose were in triplicates.
Standard agonists were as follows: DP=BW 245C, EP1-EP4=PGE2, FP=17-phenyl-PGF2α, IP=Cicaprost, and TP=U-46619. […]

The target of experiment [4] is T4, human prostanoid EP4 receptor (Homo sapiens, UniProt P35408).
T4 construct: expressed in transfected cells
The experiment is described as follows: FLIPR Ca2+ signaling antagonist assay, EP4 receptor stable cell line. Particulars: HEK-293 EBNA stable cell line; standard agonist PGE2; NA = inactive (no antagonism or Kb 10,000 nM); PAg, Ag not defined. In a few lines:
(§2)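 Peak Fluo-4 fluorescence (ex 470–495, em 515–575 nm) was read for 3.5 min on FLIPR after agonist injection and expressed relative to 10^−6 M standard agonist. Cells were HEK-293 EBNA transfectants. Test compound was added 4.5 min beforehand at 0.1–30 μM, or 0.067–1 μM for TP.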

Experiment [5] deals with T5, human prostanoid IP receptor (Homo sapiens, UniProt P43119).
T5 construct: expressed in transfected cells
The experiment can be described thus: FLIPR Ca2+ signaling antagonist assay, IP receptor stable cell line. Particulars: HEK-293 EBNA stable cell line; standard agonist Cicaprost; NA = inactive (no antagonism or Kb 10,000 nM); PAg, Ag not defined. In a few lines: as §2

The target in experiment [6] is T6, human prostanoid TP receptor (Homo sapiens, UniProt P21731).
T6 construct: expressed in transfected cells
T6 sequence (P21731 1-343): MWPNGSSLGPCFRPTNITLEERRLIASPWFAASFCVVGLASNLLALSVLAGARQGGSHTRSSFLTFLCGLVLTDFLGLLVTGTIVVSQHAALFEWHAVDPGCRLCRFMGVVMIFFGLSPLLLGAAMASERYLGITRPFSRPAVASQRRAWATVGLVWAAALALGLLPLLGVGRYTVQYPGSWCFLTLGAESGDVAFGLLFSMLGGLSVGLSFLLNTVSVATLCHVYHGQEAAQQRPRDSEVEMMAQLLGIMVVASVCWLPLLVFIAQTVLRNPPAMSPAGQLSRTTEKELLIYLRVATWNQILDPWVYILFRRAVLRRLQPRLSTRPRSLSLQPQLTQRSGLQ
The experiment can be described thus: FLIPR Ca2+ signaling antagonist assay, TP receptor stable cell line. Conditions: HEK-293 EBNA stable cell line; standard agonist U-46619; NA = inactive (no antagonism or Kb 10,000 nM); PAg, Ag not defined. The method, boiled down: as §1

Experiment [7] concerns the target T7, human prostanoid FP receptor (Homo sapiens, UniProt P43088).
T7 construct: expressed in transfected cells
The experiment is described as follows: FLIPR Ca2+ signaling antagonist assay, FP receptor stable cell line. Particulars: HEK-293 EBNA stable cell line; standard agonist 17-phenyl-PGF2α; NA = inactive (no antagonism or Kb 10,000 nM); PAg, Ag not defined. In a few lines: as §2

T3 sequence (P43116 whole entry): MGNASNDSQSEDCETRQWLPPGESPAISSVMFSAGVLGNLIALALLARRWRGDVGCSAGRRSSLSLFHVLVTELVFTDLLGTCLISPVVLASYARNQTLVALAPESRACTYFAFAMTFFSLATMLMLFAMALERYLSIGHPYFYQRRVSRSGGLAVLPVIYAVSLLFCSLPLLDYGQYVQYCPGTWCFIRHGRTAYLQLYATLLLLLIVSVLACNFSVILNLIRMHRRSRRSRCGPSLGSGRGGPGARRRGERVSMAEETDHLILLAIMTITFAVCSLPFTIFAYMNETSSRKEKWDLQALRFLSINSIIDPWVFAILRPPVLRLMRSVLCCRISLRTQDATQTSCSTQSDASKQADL
T7 sequence (P43088 whole entry): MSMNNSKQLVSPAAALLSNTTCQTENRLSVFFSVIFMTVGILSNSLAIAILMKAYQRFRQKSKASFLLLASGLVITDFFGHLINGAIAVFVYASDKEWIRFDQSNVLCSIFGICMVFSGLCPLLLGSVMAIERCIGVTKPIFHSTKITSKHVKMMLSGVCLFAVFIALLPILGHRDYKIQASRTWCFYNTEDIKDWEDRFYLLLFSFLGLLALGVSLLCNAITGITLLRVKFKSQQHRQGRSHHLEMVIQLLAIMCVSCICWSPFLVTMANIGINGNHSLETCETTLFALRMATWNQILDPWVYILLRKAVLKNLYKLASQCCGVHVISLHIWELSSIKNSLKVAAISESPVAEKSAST
T4 sequence (P35408 whole entry): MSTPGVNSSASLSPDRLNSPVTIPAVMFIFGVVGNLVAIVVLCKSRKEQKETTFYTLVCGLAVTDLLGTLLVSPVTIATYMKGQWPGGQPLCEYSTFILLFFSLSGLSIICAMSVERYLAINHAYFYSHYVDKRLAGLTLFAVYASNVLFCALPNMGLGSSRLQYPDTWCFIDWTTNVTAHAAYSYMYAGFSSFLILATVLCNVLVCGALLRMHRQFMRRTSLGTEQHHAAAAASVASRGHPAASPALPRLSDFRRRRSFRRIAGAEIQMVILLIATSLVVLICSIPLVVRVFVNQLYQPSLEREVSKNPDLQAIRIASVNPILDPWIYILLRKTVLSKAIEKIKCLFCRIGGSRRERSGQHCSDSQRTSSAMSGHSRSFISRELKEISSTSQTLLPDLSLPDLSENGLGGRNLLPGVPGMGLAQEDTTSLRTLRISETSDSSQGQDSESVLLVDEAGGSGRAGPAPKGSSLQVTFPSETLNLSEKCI
T5 sequence (P43119 whole entry): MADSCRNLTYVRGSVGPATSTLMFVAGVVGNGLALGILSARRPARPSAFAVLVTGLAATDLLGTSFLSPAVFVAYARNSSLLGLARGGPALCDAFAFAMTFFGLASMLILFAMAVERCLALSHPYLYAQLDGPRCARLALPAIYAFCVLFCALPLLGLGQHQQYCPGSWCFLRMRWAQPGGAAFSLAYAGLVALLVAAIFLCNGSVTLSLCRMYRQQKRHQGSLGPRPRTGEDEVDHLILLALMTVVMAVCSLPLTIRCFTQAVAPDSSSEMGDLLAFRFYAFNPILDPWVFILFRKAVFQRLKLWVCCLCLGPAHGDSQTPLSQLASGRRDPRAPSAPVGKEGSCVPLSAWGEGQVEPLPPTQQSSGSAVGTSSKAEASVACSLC

For the compound `Cc1cc(CCC(=O)O)nn1Cc1cc(Cl)ccc1OC(CC(C)C)CC(C)C` [Example 23, 3-[1-(5-Chloro-2-(1-isobutyl-3-methylbutoxy)benzyl)-5-methyl-1H-pyrazol-3-yl]-propionic acid], the results for the Kb in experiment [1] and in experiment [2] were 160 nM and 1500 nM, respectively. The “EP2 (FLIPR) Kb” value in experiment [3] is given as “PAg”. Moreover, the “EP4 (FLIPR) Kb” value in experiment [4] is on record as “Ag”. In experiment [5], the “IP (FLIPR) Kb” value was “Ag”. In addition, the “TP (FLIPR) Kb” value in experiment [6] is recorded as “Ag”.
Take `Cc1cc(CCC(=O)O)nn1Cc1cc(Cl)ccc1OCCCCC(C)C` [Example 36, 3-[1-(5-Chloro-2-(5-methylhexyloxy)benzyl)-5-methyl-1H-pyrazol-3-yl]-propionic acid]: the Kb (as a rule, the equilibrium dissociation constant of an antagonist, usually derived from a functional assay) in experiment [7] turned out to be 170 nM. Besides, the “DP1 (FLIPR) Kb” value in experiment [1] is listed as “PAg”. Further, the “EP1 (FLIPR) Kb” value in experiment [2] is “Ag”. In experiment [3], the “EP2 (FLIPR) Kb” value is “PAg”. The “EP4 (FLIPR) Kb” value in experiment [4] is “Ag”. Further, the “IP (FLIPR) Kb” value in experiment [5] is “Ag”. Also, the “TP (FLIPR) Kb” value in experiment [6] is “Ag”.
For the compound `Cc1cc(CCC(=O)O)nn1Cc1cc(Cl)ccc1OCCC(C)C` [Example 21, 3-[1-(5-Chloro-2-(3-methylbutoxy)benzyl)-5-methyl-1H-pyrazol-3-yl]-propionic acid], the Kb turned out to be 225 nM in experiment [7]; 350 nM in experiment [2]; 8200 nM in experiment [3]; 1000 nM in experiment [4]; 5530 nM in experiment [5]; 30 nM in experiment [6]. The “DP1 (FLIPR) Kb” value in experiment [1] was “PAg”.
Turning to `Cc1cc(CCCCC(=O)O)nn1Cc1cc(Cl)ccc1OCC1CCCC1` [Example 41, 5-[1-(5-Chloro-2-cyclopentylmethoxybenzyl)-5-methyl-1H-pyrazol-3-yl]-pentanoic acid], the Kb was 200 nM in experiment [7]; 350 nM in experiment [2]; 8200 nM in experiment [3]; 1000 nM in experiment [4]; 5500 nM in experiment [5]; 30 nM in experiment [6]. Moreover, the “DP1 (FLIPR) Kb” value in experiment [1] is recorded as “PAg”.
Take `Cc1cc(CCC(=O)O)nn1Cc1cc(Br)ccc1OCC(C)C` [Example 16, 3-[1-(5-Bromo-2-isobutoxybenzyl)-5-methyl-1H-pyrazol-3-yl]-propionic acid]: the antagonist equilibrium constant (Kb) in experiment [7] stood at 70 nM; in experiment [1] it was 200 nM; in experiment [2] it was 14 nM; in experiment [3] it was 2700 nM; in experiment [4] it was 1000 nM; in experiment [6] it was 14 nM.
`Cc1cc(CCC(=O)O)nn1Cc1cc(Cl)ccc1OCc1ccc(Cl)cc1C(F)(F)F` [Example 29, 3-[1-(5-Chloro-2-(4-chloro-2-trifluoromethylbenzyloxy)benzyl)-5-methyl-1H-pyrazol-3-yl]-propionic acid]: the Kb is 5900 nM in experiment [7], 790 nM in experiment [1], 70 nM in experiment [2] and 9800 nM in experiment [3]. In experiment [5], the “IP (FLIPR) Kb” value was “PAg”. In experiment [6], the “TP (FLIPR) Kb” value is reported as “Ag”.
For `Cc1cc(CCC(=O)O)nn1Cc1cc(Cl)ccc1OCC(C)C` [Example 42, 3-[1-(5-Chloro-2-(2-methylpropyloxy)benzyl)-5-methyl-1H-pyrazol-3-yl]-propionic acid], the Kb is 180 nM in experiment [7]; 260 nM in experiment [1]; 30 nM in experiment [2]; 2500 nM in experiment [3]; 1600 nM in experiment [4]; 40 nM in experiment [6].
As to `Cc1cc(CCC(=O)O)nn1Cc1cc(Cl)ccc1OCC1(C(F)(F)F)CCC1` [Example 38, 3-[1-(5-Chloro-2-(1-trifluoromethylcyclobutylmethoxy)benzyl)-5-methyl-1H-pyrazol-3-yl]-propionic acid], the Kb worked out at 600 nM in experiment [7]; 1900 nM in experiment [1]; 140 nM in experiment [2]; 3600 nM in experiment [4]; 6000 nM in experiment [5]; 8 nM in experiment [6].
